Assay results as given in US10752626B2, “Iso-citrate dehydrogenase (IDH) inhibitor” (SHANGHAI METON PHARMACEUTICAL CO., LTD, priority 2016, dated 2020).

What was measured:
IDH1 R132H = IDH1 R132H (Homo sapiens (Human), UniProt O75874, R132H); experiment: Biochemical assay for inhibition of mutant IDH1 R132H; settings: tested in triplet
Text: (§1) The present disclosure provides a biochemical assay method for detecting the IDH inhibition and selectivity of the compounds by detecting IDH enzyme activity directly.
(§2) Wild-type IDH enzyme could convert NADP^+ to NADPH when it catalyzes the α-KG producing reaction. Mutant IDH enzyme could convert NADPH to NADP^+ when it catalyzes the D-2-HG producing reaction. So the activity of wild-type and mutant IDH1/2 could be measured by monitoring NADPH level change: in the reaction catalyzed by wild-type IDH1/2, the newly generated NADPH is utilized instantly by coupled diaphorase-resazurin reaction to generate resorufin which is fluorescent (at Excitation 544 nm, Emission 590 nm) and thus NADPH is monitored indirectly; while in the reaction catalyzed by mutant IDH1/2, NADPH is directly monitored as it is fluorescent (at Excitation 340 nm, Emission 460 nm). By monitoring the change of NADPH level in the reaction, the enzyme activity could be determined rapidly and efficiently, IC50 of a compound could also be assayed.
(§3) The test compounds were prepared into 50 mM stock solutions in DMSO and stored at −20° C. Each test compound stock was further diluted to obtain a 100× stock solution at a concentration of 200 μM, 100 μM, 50 μM, 25 μM, 12.5 jμM, 6.25 μM and 3.125 μM, respectively, for the final use on the day of test.
(§4) Inhibition of Mutant IDHJ (R132H or R132C):
(§5) Solution A was prepared by combining 1 M Tris-HCl pH7.5 (300 μL), 5 M NaCl (450 μL), 1 M MgCl2 (150 μL), 1 M DTT (15 μL), 20 mg/mL BSA (37.5 μL), 20 mM NADPH (20 μL), and 0.5 mM α-KG (40 μL), followed by adding deionized water to a final volume of 15 mL.
(§6) Reaction buffer was prepared by combining 1 M Tris-HCl pH 7.5 (200 μL), 5 M NaCl (300 μL), 1 M MgCl2 (100 μL), 1 M DTT (10 μL) and 20 mg/mL BSA (25 μL), followed by adding deionized water to a final volume of 10 mL.
(§7) Solution B was prepared by combining the reaction buffer (5 mL) and […] IDH1-R132H (5.21 μL) or 107 μM IDH1-R132C (4.67 μL).
(§8) 148 μL Solution A was added into each sample well of a 96-well plate P1, and then 2 μL of the test compound solution at each concentration and 2 μL of DMSO (negative control/blank) were added into individual sample well respectively. 50 μL of Solution B was added into each of the sample wells having test compounds and one sample well having DMSO only, and 50 μL of reaction buffer was added into another sample well having DMSO only, respectively. P1 was put into BioTek Synergy H4 Microplate reader (BioTek Instruments Inc., Winooski, U.S.), and the program was set as follows: 37° C., shake plate 5 seconds, run kinetic mode, total detection time 20 min, detection intervals 40 seconds, detection mode fluorescence (at Excitation 340 nm, Emission 460 nm). The data were exported, the relative enzyme activity and the half-maximal inhibitory concentration (IC50) for the test compound were calculated. Relative enzyme activity was calculated as the absolute value of the slope of the Emission 460 reads of each well plotted against time (which represents the conversion rate of ca-KG to 2-HG through IDH1 modulated utilization of NADPH). The Dose-response curve was drawn and the IC50 was calculated via fitting. The IDH inhibition and selectivity of each test compound can be evaluated according to the effect of the compounds on the IDH enzyme activity.
(§9) The IDH inhibition activity of the compounds were assessed according to Test 5 of the Biological evaluation section. The test for mutant IDH1 R132H/R132C inhibition of each compound was carried out in triplet. For IDH1 R132H, the enzyme activity of exemplary Compounds 16, 21, 22, 23, 24 and 31 is plotted as a function of logarithm of the concentration of the compound in FIGS. 8A-8C, 9A-9C, 10A-10C, 11A-11C, 12A-12C and 13A-13C, respectively. […]

IDH1 R132C [1] = biological target: T1, IDH1 R132C (Homo sapiens (Human), UniProt O75874, R132C); experiment: Biochemical assay for inhibition of mutant IDH1 R132C; settings: tested in triplet
Text: as §1, §2, §3, §4, §5, §6, §7, §8, §9
Target sequence in this assay (O75874 whole entry R132C): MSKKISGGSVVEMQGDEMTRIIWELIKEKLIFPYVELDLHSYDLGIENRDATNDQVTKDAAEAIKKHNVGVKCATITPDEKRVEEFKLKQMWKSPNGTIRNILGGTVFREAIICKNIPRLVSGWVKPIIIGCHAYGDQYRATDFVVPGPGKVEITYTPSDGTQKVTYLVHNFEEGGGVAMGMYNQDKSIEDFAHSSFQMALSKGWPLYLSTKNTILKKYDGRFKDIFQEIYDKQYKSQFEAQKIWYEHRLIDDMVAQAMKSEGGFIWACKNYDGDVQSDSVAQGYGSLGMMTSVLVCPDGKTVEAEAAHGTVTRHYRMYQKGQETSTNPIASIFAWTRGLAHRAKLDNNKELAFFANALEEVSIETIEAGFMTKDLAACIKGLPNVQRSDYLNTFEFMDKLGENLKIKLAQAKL

IDH1 R132C [2] = biological target: T1, IDH1 R132C; experiment: Improved cell-based assay: D-2-HG in HT1080 cells over-expressing D-2-HG dehydrogenase; settings: 12 h
Text: The present disclosure also provides a cell based method for assaying IDH inhibition and selectivity of the compounds in human fibrosacoma cell line HT1080 and cholangiocarcinoma cell line HCCC 9810, which harbor endogenous heterozygous IDH1 R132C and R132H mutation respectively and accumulate D-2-HG Tumor derived IDH mutant lost its normal activity of producing α-KG and gained a new activity of producing D-2-HG D-2-HG is a metabolite specifically elevated in IDH mutated tumor samples.
By treating HT1080 and HCCC 9810 cells with an effective IDH inhibitor, the synthesis of D-2-HG is blocked, and D-2-HG concentration is decreased by the oxidation reaction catalyzed by D-2-HG dehydrogenase.
To perform a cell based IDH inhibitor assay, HT1080 and HCCC 9810 cells (or other cell lines harboring different IDH mutations) are cultured in DMEM supplemented with 10% FBS. The cells are treated with compounds of present disclosure at various different concentration. At various time points (between 4-24 hours) after the treatment, cell culture supernatants were removed and cells were washed with PBS for one or two times. Cell metabolites are extracted by adding 80% methanol (pre-chilled under −80° C.) in the cells, extract at 4° C. temperature for 60 min, centrifuged to remove any insoluble component. Metabolites (clear supernatant from the previous step) are lyophilized and reconstituted in pyridine containing 20 mg/ml O-methoxyamineHCl and are incubated at 70° C. for 40 minutes. After cooling down to room temperature, MTBSTFA (N-tert-Butyldimethylsilyl-N-methyltrifluoroacetamide, Sigma Aldrich) is added at a volume ratio of 4:7 (e.g., 20 μL MTBSTFA to 35 μL 20 mg/ml O-methoxyamineHCl solution) and derivation is performed at 70° C. for 30 minutes. The derived metabolites including D-2-HG are analyzed by Agilent 7890A-5750 GC/MS system. […] of the derived metabolite is injected into Agilent 7890A-5750 for D-2-HG concentration analysis. GC oven temperature is programmed from 140° C. to 260° C. at 10° C./min, from 260° C. to 310° C. at 8° C./min and hold at 310° C. for 5 min. The flow rate of carrier gas is 1 ml/min. The mass spectrometer is operated in the electron impact (EI) mode at 70 eV D-2-HG is normalized to endogenous glutamate.
The activity of IDHs in the presence of each compounds at different concentrations can be represented by relative D-2-HG concentration to negative control samples, and the IC50 value, the inhibition and selectivity for each compound can be evaluated.
The present disclosure also provides an improved cell-based assay for IDH inhibition and selectivity of the compounds, which involves stably over-expressing D-2-HG dehydrogenase in HT1080 and HCCC 9810 cells.
According to previous report, over expression of D-2-HG dehydrogenase decreases the half-life of D-2-HG in HT1080 cells (FIGS. 2A and 2B) [“D-2-hydroxyglutarate is essential for maintaining oncogenic property of mutant IDH-containing cancer cells but dispensable for cell growth”, Ma, S., et al., Oncotarget, (2015)], making the cells more sensitive to D-2-HG synthesis blockage by mutant IDH1 inhibitors. It will greatly increase the sensitivity and accurateness of this cell based assay. In the improved cell-based assay, all other steps are performed as disclosed in Test 6.
The D-2-HG inhibition activity of compounds was also assessed in the improved cell-based assay according to the method disclosed in Test 7 of the Biological evaluation section. HT1080 cells over-expressing D-2-HG dehydrogenase were cultured in 35 mm plate and treated with each of Compounds 1-37 at a concentration of 0.5 μM, 1 μM, 2.5 μM and 5 μM for 12 h, respectively, and the D-2-HG concentration was analysed. The inhibition ratio of D-2-HG in HT1080 cell by the exemplary Compounds 16, 21-24 and 31 at different concentrations were shown in Table 10.
Target sequence in this assay (O75874 2-414 R132C): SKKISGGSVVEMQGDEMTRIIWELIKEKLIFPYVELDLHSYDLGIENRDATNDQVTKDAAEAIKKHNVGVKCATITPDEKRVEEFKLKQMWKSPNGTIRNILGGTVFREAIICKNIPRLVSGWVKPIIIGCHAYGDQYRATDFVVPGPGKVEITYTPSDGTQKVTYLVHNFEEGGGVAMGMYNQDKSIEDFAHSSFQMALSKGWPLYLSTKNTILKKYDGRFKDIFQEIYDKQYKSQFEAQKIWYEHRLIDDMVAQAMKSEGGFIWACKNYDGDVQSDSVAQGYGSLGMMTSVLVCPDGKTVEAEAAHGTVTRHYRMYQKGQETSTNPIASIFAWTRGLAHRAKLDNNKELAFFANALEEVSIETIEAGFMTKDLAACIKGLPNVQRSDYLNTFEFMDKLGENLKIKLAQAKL

Chain of IDH1 R132H (O75874 whole entry R132H): as the sequence (O75874 whole entry R132C) above, with C132H counted along it

## CCN1Cc2c(ccnc2N[C@@H](C)c2ccc(Oc3cccc(F)c3)cc2)C1=O [Compound 21, (S)-2-ethyl-4-((1-(4-(3-fluorophenoxy)phenyl)ethyl)amino)-2,3-dihydro-1H-pyrrolo[3,4-c]pyridin-1-one]
IDH1 R132H
  IC50: < 1 µM
IDH1 R132C [1]
  IC50: < 1.5 µM
IDH1 R132C [2]; 0.5 μM
  Inhibition ratio of D-2-HG in HT1080 cell: 20.2%
IDH1 R132C [2]; 1 μM
  Inhibition ratio of D-2-HG in HT1080 cell: 18.7%
IDH1 R132C [2]; 2.5 μM
  Inhibition ratio of D-2-HG in HT1080 cell: 43.1%
IDH1 R132C [2]; 5 μM
  Inhibition ratio of D-2-HG in HT1080 cell: 76.1%

## CCN1Cc2c(ccnc2N[C@@H](C)c2ccc(Oc3ccccc3F)cc2)C1=O [Compound 22, (S)-2-ethyl-4-((1-(4-(2-fluorophenoxy)phenyl)ethyl)amino)-2,3-dihydro-1H-pyrrolo[3,4-c]pyridin-1-one]
IDH1 R132H
  IC50: < 1 µM
IDH1 R132C [1]
  IC50: < 1.5 µM
IDH1 R132C [2]; 0.5 μM
  Inhibition ratio of D-2-HG in HT1080 cell: 36.3%
IDH1 R132C [2]; 1 μM
  Inhibition ratio of D-2-HG in HT1080 cell: 53.3%
IDH1 R132C [2]; 2.5 μM
  Inhibition ratio of D-2-HG in HT1080 cell: 72.3%
IDH1 R132C [2]; 5 μM
  Inhibition ratio of D-2-HG in HT1080 cell: 87.8%

## CCN1Cc2c(ccnc2N[C@@H](C)c2ccc(Oc3ccc(C)cc3)c(F)c2)C1=O [Compound 24, (S)-2-ethyl-4-((1-(3-fluoro-4-(p-tolyloxy)phenyl)ethyl)amino)-2,3-dihydro-1H-pyrrolo[3,4-c]pyridin-1-one]
IDH1 R132H
  IC50: < 1 µM
IDH1 R132C [1]
  IC50: < 1.5 µM
IDH1 R132C [2]; 0.5 μM
  Inhibition ratio of D-2-HG in HT1080 cell: 45.5%
IDH1 R132C [2]; 1 μM
  Inhibition ratio of D-2-HG in HT1080 cell: 54.6%
IDH1 R132C [2]; 2.5 μM
  Inhibition ratio of D-2-HG in HT1080 cell: 72.1%
IDH1 R132C [2]; 5 μM
  Inhibition ratio of D-2-HG in HT1080 cell: 92.1%

## Cc1ccc(Oc2ccc([C@H](C)Nc3nccc4c3CN(C(C)C)C4=O)cc2)cc1 [Compound 31, (S)-2-isopropyl-4-((1-(4-(p-tolyloxy)phenyl)ethyl)amino)-2,3-dihydro-1H-pyrrolo[3,4-c]pyridin-1-one]
IDH1 R132H
  IC50: < 1 µM
IDH1 R132C [1]
  IC50: < 1.5 µM
IDH1 R132C [2]; 0.5 μM
  Inhibition ratio of D-2-HG in HT1080 cell: 36.9%
IDH1 R132C [2]; 1 μM
  Inhibition ratio of D-2-HG in HT1080 cell: 57.8%
IDH1 R132C [2]; 2.5 μM
  Inhibition ratio of D-2-HG in HT1080 cell: 68.7%
IDH1 R132C [2]; 5 μM
  Inhibition ratio of D-2-HG in HT1080 cell: 89.1%
